Data published in patent US20130156755A1, “CANCER THERAPY USING A COMBINATION OF A HSP90 INHIBITORY COMPOUNDS AND A VEGF INHIBITOR” (Synta Pharmaceuticals Corp., priority 2010, published 2013).
“Also recorded” adds a separate entry of the source.

Assays:
[1] = test system: RERF-LC-AI^IVP human lung tumor cells; test: nude mouse xenograft model, in vivo growth rate of RERF-LC-AI^IVP tumors; conditions: 5 times per week, 15 doses, nude mice
Protocol: The human squamous non-small cell lung cancer cell line, RERF-LC-AI (RCB0444; S. Kyoizumi, et al., Cancer. Res. 45:3274-3281, 1985), was obtained from the Riken Cell Bank (Tsukuba, Ibaraki, Japan). The cell line was cultured in growth media prepared from 50% Dulbecco's Modified Eagle Medium (high glucose), 50% RPMI Media 1640, 10% fetal bovine serum (FBS), 1% 100× L-glutamine, 1% 100× penicillin-streptomycin, 1% 100× sodium pyruvate and 1% 100× MEM non-essential amino acids. FBS was obtained from American Type Culture Collection (Manassas, Va., USA) and all other reagents were obtained from Invitrogen Corp. (Carlsbad, Calif., USA). […]
The growth media was replaced every 2-3 days until the flask became 90% confluent, typically in 5-7 days. […] The supernatant was aspirated and the cell pellet was resuspended in 10 ml of growth media and the cell number determined using a hemocytometer. […]
Seven to eight week old, female Crl:CD-1-nuBR (nude) mice were obtained from Charles River Laboratories (Wilmington, Mass., USA) Animals were housed 4-5/cage in micro-isolators, with a 12 hr/12 hr light/dark cycle, acclimated for at least 1 week prior to use and fed normal laboratory chow ad libitum. […] Tumor volumes (V) were calculated by caliper measurement of the width (W), length (L) and thickness (T) of tumors using the following formula: V=0.5236×(L×W×T). […]

[2] = highest non-severely toxic dose (HNSTD) in tumor-bearing SCID mice; format: in vivo, mouse; conditions: i.v. dosed once per week, tumor-bearing SCID mice (data not shown)
Protocol: The combination of Compound 1 and bevacizumab was also examined in the NCI-H1975 model using higher doses of each test article. […] The HNSTD was determined based on prior studies and was defined as the dose and dosing schedule at which no morbidity was observed, and at which no individual animal lost ≧20% of its body weight and no treatment group lost ≧10% average body weight over the course of the study.

[3] = test system: human multiple myeloma cell line RPMI 8226; test: SCID mouse xenograft model, in vivo growth of RPMI 8226 tumors
Protocol: (§1) The human non-small cell lung cancer (NSCLC) cell line, NCI-H1975 (ATCC #CRL-5908) was obtained from the American Type Culture Collection (ATCC; Manassas, Va., USA). The human multiple myeloma cell line, RPMI 8226 (ATCC #CCL-155) was also obtained from the ATCC.
(§2) NCI-H1975 cells were cultured in growth media prepared from 50% Dulbecco's Modified Eagle Medium (high glucose), 50% RPMI Media 1640 (4.5 g/L glucose), 10% fetal bovine serum (FBS), 10 mM HEPES, 1% 100× Penicillin-Streptomycin, 1% 100× sodium pyruvate and 1% 100× MEM non-essential amino acids. RPMI 8226 cells were cultured in growth media prepared with RPMI Media 1640 (4.5 g/L glucose), 10% FBS, 10 mM HEPES, 1% 100× Penicillin-Streptomycin, 1% 100× sodium pyruvate and 1% 100× MEM non-essential amino acids. FBS was obtained from ATCC and all other reagents were obtained from Invitrogen Corp. (Carlsbad, Calif., USA). Cells that had been cryopreserved in liquid nitrogen were rapidly thawed at 37° C. and transferred to a tissue culture flask containing growth media and then incubated at 37° C. in a 5% CO2 incubator. To expand the RPMI 8226 cell line, growth media was changed every 2-3 days and cultures were passaged 1:3 to 1:5 every 3-5 days. When the a 175 cm^2 flask reached approximately 20-40×10(6) total cells, the above passaging process was repeated until sufficient cells had been obtained for implantation into mice. To expand the NCI-H1975 cell line, cultures were split 1:5 every 3 days when 175 cm^2 flasks became 85% confluent. Cultures were passaged by washing with 10 mL of room temperature phosphate buffered saline (PBS) and then disassociating cells by adding 5 mL 1× trypsin-EDTA and incubating at 37° C. until the cells detached from the surface of the flask. To inactivate the trypsin, 5 mL of growth media was added and then the contents of the flask were centrifuged to pellet the cells. The supernatant was aspirated and the cell pellet was resuspended in 10 mL of growth media and the cell number determined using a hemocytometer. Cells were seeded into 175 cm^2 flasks containing 50 mL of growth media and incubated at 37° C. in a 5% CO2 incubator. When the flasks reached 85% confluence, the above passaging process was repeated until sufficient cells had been obtained for implantation into mice.
(§3) Six to eight week old, female CB17/Icr-Prkdc^scid/Crl (SCID) mice were obtained from Charles River Laboratories (Wilmington, Mass., USA) Animals were housed 4-5/cage in micro-isolators, with a 12 hr/12 hr light/dark cycle, acclimated for at least 1 week prior to use and fed normal laboratory chow ad libitum. Animals were between seven to thirteen weeks of age at implantation. To implant NCI-H1975 or RPMI 8226 tumor cells into SCID mice, cells were collected as described above, washed in PBS and resusupended at a concentration of 5×10(7) cells/mL in 50% non-supplemented medium and 50% Matrigel Basement Membrane Matrix (#354234; BD Biosciences; Bedford, Mass., USA). Using a 27 gauge needle and 1 cc syringe, 5×10(6) […] or RPMI 8226 cells in 0.1 mL of a cell suspension were injected subcutaneously into the flanks of SCID mice.
(§4) For the NCI-H1975 model, tumors were then permitted to develop in vivo until the majority reached approximately 100-225 mm^3 in tumor volume, which required ˜1½ weeks. For the RPMI 8226 model, tumors were permitted to develop in vivo until the majority reached approximately 80-200 mm^3 in tumor volume, which required ˜3½ weeks. […] Tumor volumes (V) were calculated by caliper measurement of the width (W), length (L) and thickness (T) of tumors using the following formula: V=0.5236×(L×W×T). […]

[4] = test system: human NSCLC cell line HCC827; test: SCID mouse xenograft study, in vivo growth of HCC827 tumors; conditions: 4 doses (FIG. 8)
Protocol: Tumor-bearing animals (8 mice/group) were injected 1 time per week for a total of 4 doses (arrowheads) with vehicle alone, Compound 1 alone, bevacizumab alone or a combination of Compound 1 and bevacizumab dosed concurrently. Compound 1 was i.v. injected and bevacizumab was i.p. injected. The average tumor volumes for each group (error bars represent SEM) were determined every 2-4 days.

[5] = test system: human NSCLC cell line NCI-H1975; test: SCID mouse xenograft model, in vivo growth of NCI-H1975 tumors
Protocol: as §1, §2, §3, §4

[6] = body weight changes in nude mouse RERF-LC-AI^IVP xenograft study; format: in vivo; conditions: 200 mg/kg body weight i.p., 5 times per week, 15 doses, nude mice
Protocol: Seven to eight week old, female Crl:CD-1-nuBR (nude) mice were obtained from Charles River Laboratories (Wilmington, Mass., USA) Animals were housed 4-5/cage in micro-isolators, with a 12 hr/12 hr light/dark cycle, acclimated for at least 1 week prior to use and fed normal laboratory chow ad libitum. Studies were conducted on animals between 8 and 12 weeks of age at implantation. To implant RERF-LC-AI tumor cells into nude mice, the cells were trypsinized as above, washed in PBS and resuspended at a concentration of 50×10(6) cells/ml in 50% non-supplemented RPMI Media 1640 and 50% Matrigel Basement Membrane Matrix (#354234; BD Biosciences; Bedford, Mass., USA). Using a 27 gauge needle and 1 cc syringe, 0.1 ml of the cell suspension was injected subcutaneously into the flank of each nude mouse. Tumor volumes (V) were calculated by caliper measurement of the width (W), length (L) and thickness (T) of tumors using the following formula: V=0.5236×(L×W×T).
The Hsp90 inhibitor, 17-allylamino-17-demethoxygeldanamycin (17-AAG), was employed as a positive control (Albany Molecular Research, Albany, N.Y., USA). Stock solutions of test articles were prepared by dissolving the appropriate amounts of each compound in dimethyl sulfoxide (DMSO) by sonication in an ultrasonic water bath. Stock solutions were prepared weekly, stored at −20° C. and diluted fresh each day for dosing. […]

For `C=CCNC1=C2C[C@@H](C)C[C@H](OC)[C@H](O)[C@@H](C)/C=C(\C)[C@H](OC(N)=O)[C@@H](OC)/C=C\C=C(/C)C(=O)NC(=CC1=O)C2=O` [Compound 17-AAG, 17-allylamino-17-demethoxygeldanamycin, reference compound], the “tumor growth (growth rate of tumor cells)” value ([1]; 75 mg/kg body weight i.p.) was “inhibited tumor growth; also recorded: decreased the growth rate”.
For `CC(C)c1cc(-c2nnc(O)n2-c2ccc3c(ccn3C)c2)c(O)cc1O` [Compound 1, 3-(2,4-DIHYDROXY-5- ISOPROPYL-PHENYL)-4-(1- METHYL-INDOL-5-YL)-5- HYDROXY-[1,2,4] TRIAZOLE], the “highest non-severely toxic dose (HNSTD)” value [2] was 150 mg/kg, the tumor growth ([3]; 12.5 mg/kg i.v. 5 times per week, 15 doses (FIG. 5)) was “moderately inhibited tumor growth” and the “% T/C value” ([3]; 12.5 mg/kg i.v. five times per week (15 doses), day 49, SCID mice) was 63%. The “% T/C value” ([3]; second study, single dose 12.5 mg/kg, over three days (data not shown)) was 83%, the tumor growth ([4]; 150 mg/kg i.v. once per week) was “moderately inhibited tumor growth” and the “% T/C value” ([5]; 50 mg/kg i.v. once per week (3 doses), day 29, SCID mice) was 39%. For the same compound, the tumor growth ([5]; 50 mg/kg i.v. once per week, 3 doses (FIG. 3)) was “moderately inhibited tumor growth”, the “% T/C value” ([5]; 150 mg/kg i.v. once per week (4 doses), day 38, SCID mice) was 3% and the tumor growth ([5]; 150 mg/kg i.v. once per week, 4 doses (FIG. 4)) was “substantially inhibited tumor growth”.
For “bevacizumab: Humanized monoclonal antibody that blocks VEGF; VEGF inhibitor purchased from Genentech [reference compound]”, the tumor growth ([3]; 0.3 mg/kg i.p. 2 times a week, 6 doses (FIG. 5)) was “moderately inhibited tumor growth”, the “% T/C value” ([3]; 0.3 mg/kg i.p. twice per week (6 doses), day 49, SCID mice) was 26% and the “% T/C value” ([3]; second study, single dose 1 mg/kg, over three days (data not shown)) was 42%. For the same compound, the tumor growth ([4]; 10 mg/kg i.p. once per week) was “moderately inhibited tumor growth”, the “% T/C value” ([5]; 2 mg/kg i.p. once per week (3 doses), day 29, SCID mice) was 18% and the tumor growth ([5]; 2 mg/kg i.p. once per week, 3 doses (FIG. 3)) was “moderately inhibited tumor growth”. The “% T/C value” ([5]; 10 mg/kg i.p. once per week (4 doses), day 38, SCID mice) was 17% and the tumor growth ([5]; 10 mg/kg i.p. once per week, 4 doses (FIG. 4)) was “moderately inhibited tumor growth”.
In the case of `CCc1cc(-c2nnc(S)n2-c2ccc(OC)c3c2ccn3C(C)C)c(O)cc1O` [Compound 26, 3-(2,4-DIHYDROXY-5-ETHYL- PHENYL)-4-(1-ISOPROPYL-7- METHOXY-INDOL-4-YL)-5- MERCAPTO-[1,2,4] TRIAZOLE], the “overt toxicity (effect on body weights)” value [6] is reported as “not overtly toxic; also recorded: not associated with overt toxicity” and the “tumor growth (growth rate of tumor cells)” value ([1]; 200 mg/kg body weight i.p.) is reported as “inhibited tumor growth; also recorded: decreased the growth rate”.
